The assay deals with OA articular chondrocytes. Put plainly: OA chondrocyte phenotype gene expression screening of BMP-7 peptides (RT-qPCR). To be noted: for activity in the assays as employed herein (table 2): peptides with additional amino acid N-terminal of position 100; for COL2A1 / COX-2 / SOX9: Table 5; for suppression of the OA chondrocyte phenotype: independent of the tested concentration (1000, 100, 10 and 1 nM were tested). Set-up: key to COX-2 / COL2A1 / SOX9: [+] denotes a significantly increased expression of chondrogenic marker genes SOX9 and COL2A1, or a significantly decreased expression of OA phenotypic marker COX-2 in OA articular chondrocytes, in comparison to untreated OA articular chondrocytes; key to IL-6 / ADAMTS5 / COL10A / BAPX1/NKX3.2 / ALP / RUNX2: —: [-] denotes the absence of a significant effect or a significantly decreased expression of chondrogenic marker genes BAPX1/NKX3.2, or a significantly increased expression of OA phenotypic markers IL-6, ADAMTS5, COL10A, ALP and RUNX2 in OA articular chondrocytes, in comparison to untreated OA articular chondrocytes. It is filed as cell-based, human. Here is the method:
(§1) FIG. 2: The action of 20-mer peptides (10 nM) of SEQ ID NO: 2-17 (peptides with 1 or 2 amino acids intervals (18-19 amino acid overlap)) and a random peptide with a sequence according to SEQ ID NO: 49 on the expression of ADAMTS5 was determined on a validated pool of passage 2 OA human articular chondrocytes (n=18) and compared to full-length recombinant BMP-7 (1 nM). Samples were harvested after 24 hours and analyzed for indicated genes by RT-qPCR (normalized for 28S rRNA expression and relative to control conditions (no peptide exposure)). In the graphs, numbers on the x-axis represent individual peptides according to their SEQ ID NO's, error bars represent mean±SEM, statistical differences were calculated (one-way ANOVA with bonferroni correction) to control condition. *=p<0.05 lower than control condition for ADAMTS5. Random peptide is a peptide according to SEQ ID NO: 49.
as §1, with “3:” for “2:”, “ALP” for “ADAMTS5”, “ALP.” for “ADAMTS5.”
as §1, with “4:” for “2:”, “BAPX1/NKX3.2” for “ADAMTS5”, “BAPX1/NKX3.2.” for “ADAMTS5.”
as §1, with “5:” for “2:”, “COL10A1” for “ADAMTS5”, “COL10A1.” for “ADAMTS5.”
FIG. 6: The action of 20-mer peptides (10 nM) of SEQ ID NO: 2-17 (peptides with 1 or 2 amino acids intervals (18-19 amino acid overlap)) and a random peptide with a sequence according to SEQ ID NO: 49 on the expression of IL-6 was determined on a validated pool of passage 2 OA human articular chondrocytes (n=18) and compared to full-length recombinant BMP-7 (1 nM). […]
(In qPCR the cycle at which signal appears reflects the starting amount.)

Setting [1] is: Table 2 (FIG. 2: 10 nM, 24 hours, RT-qPCR, 28S rRNA normalized), vs untreated OA articular chondrocytes.
The mark [2] stands for this setting: Table 2 (FIG. 3: 10 nM, 24 hours, RT-qPCR, 28S rRNA normalized), vs untreated OA articular chondrocytes.
[3] abbreviates: Table 2 (FIG. 4: 10 nM, 24 hours, RT-qPCR, 28S rRNA normalized), vs untreated OA articular chondrocytes.
The mark [4] stands for this setting: Table 2 (FIG. 5: 10 nM, 24 hours, RT-qPCR, 28S rRNA normalized), vs untreated OA articular chondrocytes.
Where [5] appears, read: Table 2 (FIG. 6: 10 nM, 24 hours, RT-qPCR, 28S rRNA normalized), vs untreated OA articular chondrocytes.
Where [6] appears, read: Table 2 (FIG. 7: 10 nM, 24 hours, RT-qPCR, 28S rRNA normalized), vs untreated OA articular chondrocytes.
The mark [7] stands for this setting: gene expression in OA articular chondrocytes vs untreated.
The mark [8] stands for this setting: Table 1, gene expression in OA articular chondrocytes vs untreated.

In the case of “VPKPSSAPTQLNAISVLYFD (listed as Homo sapiens) [SEQ ID NO: 5]”, the “activity in the assays as employed herein (table 2)” value (“activity in the assays” for short) is reported as “lost its activity”.

In the case of “ETVPKPSSAPTQLNAISVLY (listed as Homo sapiens) [SEQ ID NO: 4]”, the “activity in the assays” value was “lost its activity”.

“13 (SVLYFDDSSNVILKKYRNMV; listed as Homo sapiens) [compound 13]”: the ADAMTS5 result under setting [1] is “+”. For the same substance, under setting [2], the ALP entry is reported as “+”. The BAPX1/NKX3.2 result under setting [3] was “+”. For the same substance, under setting [4], the COL10A result was “+”. Further, the IL-6 entry under setting [5] is listed as “+”. Besides, the RUNX2 result under setting [6] was “+”. Besides, under setting [7], the COL2A1 entry was “+”, the COX-2 entry was “+” and the SOX9 entry is “+”.

As for “SSAPTQLNAISVLYFDDSSN (listed as Homo sapiens) [SEQ ID NO: 8]”, the “suppression of the OA chondrocyte phenotype” value (shortened to “suppression”) was “efficiently suppressed the OA chondrocyte phenotype”.

For the substance “2 (FINPETVPKPSSAPTQLNAI; listed as Homo sapiens) [compound 2]”, the ADAMTS5 entry under setting [1] is “—”. Further, under setting [2], the ALP result is recorded as “—”. The BAPX1/NKX3.2 entry under setting [3] is recorded as “—”. Under setting [4], the COL10A result is “—”. Under setting [5], the IL-6 entry is recorded as “—”. For the same substance, under setting [6], the RUNX2 result is “—”.

Regarding “23 (CEGECAFPLNSYMNATNHAI; listed as Homo sapiens) [compound 23]”, under setting [8], the ADAMTS5 result is on record as “—”, the ALP result was “—”, the BAPX1/NKX3.2 entry is reported as “—” and the COL10A entry is reported as “—”. Under setting [8], the IL-6 result is on record as “—” and the RUNX2 entry is on record as “—”.

“FINPETVPKPSSAPTQLNAI (listed as Homo sapiens) [SEQ ID NO: 2]”: the “activity in the assays” value is listed as “lost its activity”.

With “17 (SSNVILKKYRNMVVRASGSH; listed as Homo sapiens) [compound 17]”, the ADAMTS5 entry under setting [1] was “+”. The ALP result under setting [2] is on record as “+”. The BAPX1/NKX3.2 result under setting [3] is on record as “+”. In addition, the COL10A entry under setting [4] was “+”. The IL-6 entry under setting [5] was “+”. Also, the RUNX2 entry under setting [6] is listed as “+”. Under setting [7], the COL2A1 entry was “+”, the COX-2 entry is “+” and the SOX9 entry is on record as “+”.

Consider “8 (SSAPTQLNAISVLYFDDSSN; listed as Homo sapiens) [compound 8]”, for which, under setting [1], the ADAMTS5 entry is listed as “+”. Besides, the ALP entry under setting [2] is on record as “+”. In addition, the BAPX1/NKX3.2 result under setting [3] is listed as “+”. Further, the COL10A result under setting [4] is on record as “+”. In addition, the IL-6 entry under setting [5] is “+”. Besides, the RUNX2 result under setting [6] was “+”. Besides, under setting [7], the COL2A1 result is reported as “+”, the COX-2 entry is given as “+” and the SOX9 result is given as “+”.

On to “AISVLYFDDSSNVILKKYRN (listed as Homo sapiens) [SEQ ID NO: 12]”, for which the “suppression” value is recorded as “efficiently suppressed the OA chondrocyte phenotype”.

Turning to “NPETVPKPSSAPTQLNAISV (listed as Homo sapiens) [SEQ ID NO: 3]”, the “activity in the assays” value was “lost its activity”.

For the substance “11 (LNAISVLYFDDSSNVILKKY; listed as Homo sapiens) [compound 11]”, the ADAMTS5 result under setting [1] is listed as “+”. Moreover, the ALP result under setting [2] is reported as “+”. Besides, the BAPX1/NKX3.2 entry under setting [3] is recorded as “+”. Besides, the COL10A entry under setting [4] was “+”. In addition, the IL-6 result under setting [5] was “+”. Besides, the RUNX2 result under setting [6] is on record as “+”. For the same substance, under setting [7], the COL2A1 entry is “+”, the COX-2 entry was “+” and the SOX9 entry was “+”.

For the substance “4 (ETVPKPSSAPTQLNAISVLY; listed as Homo sapiens) [compound 4]”, the ADAMTS5 entry under setting [1] is listed as “—”. Also, the ALP entry under setting [2] is on record as “—”. Further, the BAPX1/NKX3.2 entry under setting [3] was “—”. Also, the COL10A entry under setting [4] is on record as “—”. In addition, the IL-6 result under setting [5] is listed as “—”. For the same substance, the RUNX2 result under setting [6] is “—”.

Consider “SSNVILKKYRNMVVRASGSH (listed as Homo sapiens) [SEQ ID NO: 17]”, for which the “suppression” value is listed as “efficiently suppressed the OA chondrocyte phenotype”.

These data come from patent US11141462B2, “Method for the treatment or prevention of osteoarthritis” (Chondropeptix B.V., priority 2016, dated 2021).
